Assay results as given in patent US4336268A, “Cyclohexene derivative analgesics” (Hoffmann-La Roche Inc., priority 1980, dated 1982).
Where a name gives a salt, the structure may show the parent alone.

Legend:
Format in all cases: in vivo
[1] = "writhing test" (analgesic activity); conditions: p.o.; for ED50: Mus musculus, po
Description: (§1) In the Table which follows are compiled the ED50 values obtained in this test with representative compounds of formula I. The Table also contains data relating to the acute toxicity of the compounds, that is, LD50 in mg/kg in the case of single oral administration to mice.

[2] = acute toxicity, single oral administration to mice; conditions: mouse, in vivo
Description: as §1

mice = assay: acute toxicity, single oral administration to mice
Description: as §1

Row | Structure (SMILES) | ED50 ([1]; 0.5 h, after 30 min.) [mg/kg] | ED50 ([1]; 1 h, after 60 min.) [mg/kg] | LD50 [2] [mg/kg] | ED50 in the "writhing test" ([1]; after 60 min., hydrochloride, 60 min) [mg/kg] | LD50 (mice) [mg/kg]
1 | CN(C)CCC1(c2cccc(O)c2)C=CCCC1 (racemic) [rac. 1-(m-Hydroxyphenyl)-N,N-dimethyl-2-cyclohexene-1-ethylamine hydrochloride] | 41 | 26 | 250 to 500 | – | –
2 | COc1cccc(C2(CCN(C)C)C=CCCC2)c1 (racemic) [rac. 1-(m-methoxyphenyl)-N,N-dimethyl-2-cyclohexene-1-ethylamine hydrochloride] | 33 | 35 | 150 to 300 | – | –
3 | COc1cccc(C2(CCN(C)C)C=CCCC2)c1.Cl (single isomer, unassigned; (+)) [(+)-1-(m-Methoxyphenyl)-N,N-dimethyl-2-cyclohexene-1-ethylamine hydrochloride] | – | 24 | 250 to 500 | – | –
4 | COc1cccc(C2(CCN(C)C)C=CCCC2)c1.Cl (single isomer, unassigned; (-)) [(-)-1-(m-Methoxyphenyl)-N,N-dimethyl-2-cyclohexene-1-ethylam] [(-)-1-(m-Methoxyphenyl)-N,N-dimethyl-2-cyclohexene-1-ethylamine hydrochloride] | – | – | – | 19 | 250 to 500
